Measurements taken from ChEMBL document CHEMBL1135210, “Succinimide hydroxamic acids as potent inhibitors of histone deacetylase (HDAC)” (Bioorg Med Chem Lett, 2002).

How the values were obtained:
Histone deacetylase = experiment: Concentration required to inhibit Histone Deacetylase (HDAC) from K562 erythroleukemia cells; assay type: cell-based, Homo sapiens
cells = assay type: functional; details: Homo sapiens, MDA435
Description: Concentration required for the antiproliferation of Human MDA-435 breast carcinoma cells

HT-1080 = experiment: Concentration required for the antiproliferation of Human HT1080 fibrosarcoma cells; assay type: functional, cell-based

Compound	IC50 (Histone deacetylase)	IC50 (cells)	IC50 (HT-1080)
CNCC(=O)[C@@H](Cc1ccccc1)NC(=O)CCCCCCC(=O)NO	1400 nM	–	–
CC(C)C[C@@H]1CC(=O)N([C@@H](CC2CCCCC2)C(=O)NCCCCCC(=O)NO)C1=O	640 nM	–	–
CC(C)C[C@@H]1CC(=O)N([C@@H](Cc2ccccc2)C(=O)NCCCCCC(=O)NO)C1=O	99 nM	670 nM	2300 nM
CCC[C@H]1C(=O)N([C@@H](Cc2ccccc2)C(=O)NCCCCCC(=O)NO)C(=O)[C@@H]1CC(C)C	51 nM	570 nM	400 nM
O=C(CCCCCNC(=O)[C@H](Cc1ccccc1)N1C(=O)CCC1=O)NO	660 nM	10000 nM	14000 nM
CC(C)C[C@H]1C(=O)N2C[C@@H]1CCCCCOc1ccc(cc1)C[C@H]2C(=O)NCCCCCC(=O)NO	38 nM	150 nM	250 nM
CCC[C@H]1C(=O)N([C@@H](Cc2ccc(OC)cc2)C(=O)NCCCCCC(=O)NO)C(=O)[C@@H]1CC(C)C	38 nM	180 nM	530 nM
CC(C)C[C@H]1CN[C@H](C(=O)NCCCCCC(=O)NO)Cc2ccc(cc2)OCCCCC[C@H]1C(=O)OC(C)(C)C	2.1 nM	–	–
CC(C)C[C@@H]1CC(=O)N(CC(=O)NCCCCCC(=O)NO)C1=O	5000 nM	–	–
CC(C)C[C@H]1C(=O)N([C@@H](Cc2ccccc2)C(=O)NCCCCCC(=O)NO)C(=O)C12CCCC2	66 nM	700 nM	1500 nM
O=C(CCCCCNC(=O)[C@H](Cc1ccccc1)N1CCCC1=O)NO	> 5000 nM	–	–
